Laboratory results from PubChem BioAssay (NCI).
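Assay format: 96-well plates, 48-hour exposure. At the GI50, growth is halved. The concentration for full growth arrest is given as TGI.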

Key:
Experiment in all cases: NCI tumour cell line growth inhibition, 48 h
[1] = test system: K-562 leukemia
[2] = test system: OVCAR-8 ovarian
[3] = test system: ACHN renal
[4] = test system: SK-MEL-5 melanoma
[5] = test system: MALME-3M melanoma
[6] = test system: MOLT-4 leukemia
[7] = test system: U251 CNS
[8] = test system: NCI-H226 lung
[9] = test system: HOP-92 NSCLC

Compound	GI50 [1] [µM]	TGI [1] [µM]	GI50 [2] [µM]	TGI [2] [µM]	GI50 [3] [µM]	TGI [3] [µM]	GI50 [4] [µM]	TGI [4] [µM]	GI50 [5] [µM]	TGI [5] [µM]	GI50 [6] [µM]	TGI [6] [µM]	GI50 [7] [µM]	TGI [7] [µM]	GI50 [8] [µM]	TGI [8] [µM]	GI50 [9] [µM]	TGI [9] [µM]
C[C@H]1CCCC(O)C(O)[C@@H]2C[C@H](O[Si](C)(C)C(C)(C)C)C[C@H]2[C@H](O[Si](C)(C)C(C)(C)C)C(O)C(O)C(=O)O1 (stereo partly drawn)	69.4	> 100	13.5	37.3	14.4	44.7	45.4	> 100	11.7	35.2	66	> 100	12.7	30.9				
COc1ccc(C(=O)c2ccc([As]=O)cc2)cc1 (stereo not drawn)			0.0617	0.203	0.0333	0.119	0.14	0.288	0.0281	0.0861	0.0389	0.265	0.0218	0.0615	0.169	0.459	0.13	0.262
O=C1CCCCN1CCCCC#Cc1cccc(C#Cc2cccnc2)c1	14.7	> 100	21.6	67.9	9.64	21.7	14.3	36.3	21.7	79.1	73.1	> 100	7.05	22	12.9	34	19.2	> 100
Cc1c2ccccc2cc2ccc3oc([N+](=O)[O-])cc3c12		> 100		> 100		> 100		> 100		> 100		> 100		> 100				> 100
CC(=O)/C(=C/c1ccccc1F)C(=O)c1ccccc1				51		> 100		> 100				7.14		> 100		> 100		> 100
O=c1c2cc(Br)ccc2nc(CCl)n1-c1ccc(O)c([N+](=O)[O-])c1		48.5		42.2		79.9		29.8		33.4		53.5		> 100		29.3		56.6
O=c1cc(/C=C/c2ccccc2)[nH]c2cc3c(cc12)OCO3				19.9		28.3	2.17	12.3				13.7		7.18	2.91	10.8		14.8
CCCCN(CCCC)C(=O)/C(CC(=O)c1cccc2ccccc12)=N\NC(=O)c1cc2ccccc2cc1O				> 100		78.7		32		35.4		42.9		72.3		44.7		56.8
Cc1ccc(NC(=O)c2cc(S(=O)(=O)N3C(=O)NC(=O)NS3(=O)=O)c(S)cc2Cl)cc1	22.2	68.7	30.7	90.6	26.3	83.8	15.4	32			15.3	44	27.1	> 100	30.6	76.6	15.6	54.7
O=C(/C=C/c1ccccc1)CC(=O)CCC(=O)Nc1ccc(Cl)cc1		> 100		> 100		> 100		> 100		> 100		> 100		> 100		> 100		
CSc1nnc(COc2ccc(Cl)cc2)o1				> 100		> 100		> 100		> 100				> 100				
COc1cc(NCCCCCCCNC(C)C)c2nccc(C)c2c1	3.46	14.6	15.2	33.5	14.2	27.8	11.9	24.6	17.3	34.8	6.95	23	11	24.2	14.6	34.3	10.7	23.8
Cc1c(C(=O)O)oc2ccc([N+](=O)[O-])cc12		> 100		> 100		> 100		> 100		> 100				> 100				> 100
Cn1c2c(c3ccccc31)CCN(CCN1CCN(c3cccc(Cl)c3)CC1)C2=O		> 100		> 100		> 100		62.6				> 100		> 100				77.1
Cc1nc(C(N)=S)sc1C(=O)/C=C/c1c(O)ccc2ccccc12		> 64.7		> 100		> 100		> 100		> 100		> 69		> 100		> 100		> 100
CCCCn1c(-c2ccc(C(=O)O/N=C(\N)c3ccc4c(c3)OCO4)cc2)nc(-c2ccccc2)c1-c1ccccc1			3.37	> 100	1.35	2.81	1.98	4.54	1.78	4.3			2	5.24	3.93	> 100		
Nc1ncnc2c1ncn2CC(O)CO (stereo not drawn)		> 100		> 100				> 100		> 100		> 100				> 100		> 100
